Test results: US5272175A, “Substituted tyrosyl diamide compounds” (priority 1992, dated 1993)
pIC50: −log10 of the molar value. Where a name gives a salt, the structure may show the parent alone.

Tests used:
mice [1] = test: Tail Flick Assay; format: in vivo, Male Charles River albino mice; conditions: Mus musculus, sc, subcutaneous, dose producing half maximum possible increase in latency (to 7.5 seconds)
Source text: (§1) The "Tail Flick Assay" and the "Hot Plate Assay" (also known as the "Hind Paw Lick Assay") use thermal pain of transient duration, and are tests in which the pain threshold of the mice or rats being analyzed has not been altered. They are useful for evaluating the ability of a compound or drug to increase the animal's pain threshold (i.e. prolong response latencies), rather than to restore normal thresholds.
(§2) The heat-induced response to the Tail Flick Assay is a reflex reaction mediated at the level of the spinal cord. The heat-induced response to the Hot Plate Assay, however, is a more complex behavior requiring integration at higher centers in the brain. […]
(§3) Tail flick response latencies (defined as the time that elapsed between the onset of a high intensity beam of light and the reflex removal of the mouse's tail) and hot plate response latencies (defined as the time that elapsed between the placement of a mouse on a 55 degrees Celsius surface and a lick of the hind paw) were separately, but consecutively, measured before (baseline) and again at fixed intervals after subcutaneous administration of the Test Tyrosyl Diamide Compound, or after the administration of saline (controls). […] The significance of any increase in tail flick response latency or hot plate response latency is determined using analyses of variance. […]

μ opioid receptors = μ opioid receptors (Rattus norvegicus, UniProt P33535); test: Opiate Binding Assay, displacement of 3[H]-DAMPGO from μ receptors
Chain of μ opioid receptors (P33535 whole entry): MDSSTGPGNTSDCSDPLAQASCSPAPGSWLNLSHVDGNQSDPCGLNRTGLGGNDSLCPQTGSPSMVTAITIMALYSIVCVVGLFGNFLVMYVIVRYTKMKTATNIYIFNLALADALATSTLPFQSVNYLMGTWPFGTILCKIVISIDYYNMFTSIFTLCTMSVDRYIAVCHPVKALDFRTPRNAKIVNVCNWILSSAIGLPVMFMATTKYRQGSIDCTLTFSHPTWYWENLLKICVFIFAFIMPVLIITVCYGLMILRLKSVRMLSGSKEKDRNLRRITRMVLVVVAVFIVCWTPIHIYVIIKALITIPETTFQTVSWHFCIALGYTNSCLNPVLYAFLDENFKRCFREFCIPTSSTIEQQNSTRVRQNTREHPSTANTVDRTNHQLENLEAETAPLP

mice [2] = test: Writhing Assay (phenylbenzoquinone (PBQ)-induced writhing), analgesic activity; format: in vivo, CD Charles River mice; conditions: for ED50: Mus musculus, 50% of mice with writhes <= half control median
Source text: The "Writhing Assay" is one of the most widely-used experimental procedures for measuring the analgesic activity of different narcotic and nonnarcotic analgesic agents, and involves the continuous, chemically-induced pain of visceral origin to an animal, such as a mouse or rat. [Gyires et al., Arch. int. Pharmacodyn, 267, 131-140 (1984); C. Vander Wende et al., Fed. Proc., 15, 494 (1956); Koster et al., Fed. Proc., 18, 412 (1959); and Witken et al., J. Pharmacol. Exp. Ther., 133, 400-408 (1961).] Chemicals which may be used to induce this pain include phenylbenzoquinone (PBQ) and acetic acid. As a result of the chemical irritation to the animal, a characteristic stretching and writhing of the animal (dorsiflexion of the animal's back, extension of its hindlimbs and the strong contraction of its abdominal musculature) will generally occur. […] Drugs which reduce the number of writhes of the animal appear to restore the normal nociceptive threshold of the animal.
This assay was conducted generally in the manner described by R. I. Taber, "Predictive Value of Analgesic Assays in Mice and Rats," Advances in Biochemical Phychopharmacology, 8, 191 (1974).
Two hundred CD Charles River mice, weighing 20 to 30 grams, were used in this assay.
Twenty-five minutes after subcutaneous administration, and fifteen minutes after oral administration, to the mice of 10 mg per kilogram (mpk) of body weight of either a tyrosyl diamide compound of the invention (hereinafter "test compound"), or of the Jacobson Compound, 0.1 mL per 10 g of body weight of a 0.025% w/v solution of phenylbenzoquinone (PBQ) was injected intraperitoneally into each mouse. Some mice were given saline in place of a test compound, or of the Jacobson Compound, and were used as a control group.
Five minutes later, each mouse was individually placed into a glass beaker for observation, and the number of writhes occurring during the following ten-minute period was counted.
A compound was considered to be "active" (to have produced analgesia in a mouse) if, after the administration of 10 mg per kilogram (mpk) of body weight of the compound to the mouse, the number of writhes elicited by a mouse injected with PBQ was equal to, or less than, one-half the median number of writhes recorded for the saline-treated control group of mice that day, as described by R. I. Taber, supra.
The standard initial screening dose of a test compound employed in this assay was 10 mpk […] for both routes of administration. If this initial screening dose of the compound produced analgesia in seven of ten mice, then the effect of additional doses of the compound on the writhing response was evaluated, and then the ED50 value (that dose of a compound which produced analgesia in 50% of the mice to which the compound was administered) was calculated. A maximum likelihood function was used to determine the ED50 value. (The slopes of the dose-response curves for the compounds analyzed were compared as described by Tallarida and Murray, Manual of Pharmacologic Calculations, Page 1 (Springer Verlag, N.Y., 1981)).

mice [3] = test: Hot Plate Assay (Hind Paw Lick Assay); format: in vivo, Male Charles River albino mice; conditions: Mus musculus, sc, subcutaneous, 55 degrees Celsius, dose producing half maximum possible increase in latency (to 25 seconds)
Source text: as §1, §2, §3

δ opioid receptors = δ opioid receptors (Rattus norvegicus, UniProt P33533); test: Opiate Binding Assay, displacement of 3[H]-DSLET from δ receptors
Chain of δ opioid receptors (P33533 whole entry): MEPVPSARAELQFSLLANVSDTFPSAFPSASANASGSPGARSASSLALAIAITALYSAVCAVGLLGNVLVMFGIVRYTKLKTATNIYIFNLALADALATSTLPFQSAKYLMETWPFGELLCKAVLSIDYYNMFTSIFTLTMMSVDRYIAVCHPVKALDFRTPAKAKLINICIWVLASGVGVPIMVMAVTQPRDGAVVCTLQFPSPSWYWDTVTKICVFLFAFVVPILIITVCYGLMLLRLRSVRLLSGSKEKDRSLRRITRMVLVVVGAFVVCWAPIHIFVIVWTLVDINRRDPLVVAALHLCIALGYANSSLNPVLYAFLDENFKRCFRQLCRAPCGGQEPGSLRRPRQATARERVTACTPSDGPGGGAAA

## CC(=O)N[C@@H](Cc1ccccc1)C(=O)NCC(C)(C)NC(=O)[C@@H](N)Cc1c(C)cc(O)cc1C [Example 47, αS-(Acetylamino)-N-[2-[[[2S-amino-3-(4-hydroxy-2,6-dimethylphenyl) -1-oxopropyl]amino]-2-methylpropyl]-benzenepropanamide, monohydrochloride]
Mice [1]
  ED50: 1.9 mg/kg
μ opioid receptors
  pIC50: 9.40
Mice [2]
  potency rank in the Writhing Assay: most potent compound of the invention tested
Mice [2]; 0.25 h, oral, PBQ i.p. 15 min after compound, read-out: ED50, Writhing Assay, Oral (p.o.)
  ED50: 0.6 mg/kg
Mice [2]; sc, 25 min, subcutaneous, PBQ i.p. 25 min after compound, read-out: ED50, Writhing Assay, Subcutaneous (S.C.)
  ED50: 0.2 mg/kg
Mice [2]; oral
  potency relative to the Jacobson Compound, Writhing Assay, oral: seven times more potent
Mice [2]; subcutaneous
  potency relative to the Jacobson Compound, Writhing Assay, subcutaneous: eight times more potent
Mice [3]
  ED50: 2.4 mg/kg
δ opioid receptors
  pIC50: 9.52
δ opioid receptors; ratio of mean IC50 values for μ and δ, above 1.0 = more δ specific
  Mean IC50 μ/δ Ratio: 1.3
